# Test results from patent US9932317B2, “Quinazoline compounds and their use in therapy” (Imperial Innovations Limited, priority 2012, dated 2018).
# Assays:
# [1] = system: EZH2 target genes (KRT17, FBXO32) in MDA-MB-231 cells; test: Real-time RT-PCR cell based assay for up-regulation of H3K27me3 silenced genes
# Description: In order to monitor the reversal of epigenetic silencing associated with H3K27me3, a cell based assay was established using the breast-cancer cell line MDA-MB-231 for which EZH2 expression levels as well as EZH2 target genes have been characterised (17). For initial characterisation of compound activity two genes (KRT17, FBXO32) were selected which are primarily silenced by H3K27me3 in combination with H3K9me2/3 but are not DNA methylated. Furthermore, the DNA methylated gene (RUNX3) was selected to control for effects at loci that are silenced by H3K27me3 in combination with CpG island DNA methylation. The two enzymes which perform H3K27 methylation (EZH2) and demethylation (JMJD3) were also included. Cell death can lead to the down-regulation of EZH2 and up-regulation of JMJD3 in cells (36) and is therefore important to control for indirect effects due to cell death in such a cell-based assay.
# In order to identify compounds which can mediate the reactivation of PRC2 silenced genes, MDA-MB-231 cells were treated for 48 h at a concentration of 10 μM of Example compounds 3 (HKMTi-1-005), 4 (HKMTi-1-022) or 5 (HKMTi-1-011), as well as with the comparative examples BIX-01294 or UNC0224, and mRNA levels of KRT17, FBXO32, RUNX3, as well as EZH2 and JMJD3 were measured by real-time RT-PCR. The data were normalised against the housekeeping gene GAPDH as well as RNA pol II (only results for GAPDH are shown, although consistent results were obtained with RNA pol II normalisation). […] The reported G9a/GLP specific inhibitors BIX01294 and UNC0224 have a very different activity profile on gene expression.
# (§1) To characterise example compounds 3 (HKMTi-1-005), 4 (HKMTi-1-022) and 5 (HKMTi-1-011) further, MDA-MB-231 cells were treated for 48 h and 72 h at various concentrations (FIGS. 1d and e). […] At higher doses of compounds cell death started to occur, particularly at 72 h, which coincides with a dramatic drop in GAPDH levels. At these doses, expression of KRT17 was often below the detection limit of low-expressed genes due to cell death (indicated as “*” in FIGS. 1d and e). Independently synthesised batches of Example compounds 3 (HKMTi-1-005), 4 (HKMTi-1-022) and 5 (HKMTi-1-011) were prepared and assessed to ensure reproducibility of our results and indeed confirmed that those compounds could induce gene re-expression of KRT17 and FBXO32.
# Cell culture and compound treatment: MDA-MB-231, T47D, MCF7, BT474, BT549 and SKBR3 breast cancer cell lines were cultured in DMEM-Medium supplemented with 10% FCS (#02.00.830, First Link (UK), 2 mM L-Glutamine (#25030-024, Invitrogen), 100 U/ml Penicillin and 100 μg/ml Streptavidin (#15070-063, Invitrogen) until they were ˜60% confluent and then treated for either 48 h or 72 h with a compound. Compounds were diluted in DMSO at Stocks of 10 mM. MCF-10a breast cell lines were cultured in DMEM/F12-Medium supplemented with 5% horse serum, EGF (20 ng/ml), Hydrocortizone ([…]), Cholera Toxin (100 ng/ml), Insulin (10 μg/ml) as well as 100 U/ml Penicillin and 100 μg/ml Streptavidin (#15070-063, Invitrogen). For MTT experiments, cells were either kept in DMEM/F12 growth medium or in normal DMEM-Medium to mimic the ‘normal’ non-dividing cell state.
# Following compound treatment for 48 h (in 6-well plates), media was removed and 1.5 ml of TRIzol (#155966018, Invitrogen) was added directly to lyse cells. Once cells were lysed, the protocol was continued with 1 ml (TRIzol, cell lysate) according to the manufactures instructions. Purified RNA was dissolved in 35 μl of UltraPure DNase/RNase-free distilled water (#10977049, Invitrogen). Reverse transcription was done using the SuperScript III First-Strand Synthesis System (#18080-051, Invitrogen) according to the manufactures instructions, using 7 μl of the purified RNA as starting material. For real-time measurements the 2×iQ SYBR Green Supermix (#170-8882, Bio-Rad), 200 nM Primers and 0.4 μl of cDNA/per 20 μl reaction was used. […]
# [2] = system: histone marks at KRT17 and FBXO32 promoter region in MDA-MB-231 cells; test: Chromatin Immunoprecipitation (ChIP) at KRT17 and FBXO32 promoter; assay type: cell-based; conditions: MDA-MB-231, 5 μM, 72 h
# Protocol: The fold difference to the untreated sample is shown. Each IP-value has been determined as the relative increase to the no-antibody control and then normalised to GAPDH levels.
# (§2) Chromatin Immunoprecipitation (ChIP) experiments were carried out on treated MDA-MB-231 cells to verify that the detected gene up-regulation is indeed due to chromatin remodelling (FIG. 2). For this, typical silencing marks such as H3K9me3 and H3K27me3 were tested as well as activating marks such as H3K4me3, H3K27ac and H3K9ac. […] It should be noted that greater than 50% cell death is observed for compound 5 (HKMTi-1-011) at this concentration, but not for the others, and the changes observed in histone marks for compound 5 (HKMT-1-011) may reflect ongoing cell death.
# ChIP was accomplished using Dynabeads Protein A (Invitrogen #100-01D.) according to (41), except that following the Chelex-DNA purification an additional purification with QIAquick PCR Purification Kit (#28106, Qiagen) was carried out, here the ChIP-products were eluted in 50 μl and for subsequent real-time measurements (as described above) 1.5 μl per reaction was used. The list of Primers can be found in FIG. 7 (Supplementary Table 2).
# MDA-MB-231 cells = test: Cell death of treated MDA-MB-231 cells; assay type: cell-based; conditions: MDA-MB-231, concentration of the ChIP experiment (5 μM, 72 h)
# Protocol: as §1
# as §2, with “death. […]” for “death.”
# [3] = system: EZH2 target genes in MDA MB-231 cells; test: Agilent two-colour gene expression microarrays, enrichment of EZH2 target genes; assay type: cell-based; conditions: MDA MB-231, 10 μM
# Protocol: Agilent two-colour microarrays were used to profile gene expression changes induced 24 h and 48 h after 10 μM treatment with example compound 3 (HKMTi-1-005) compared to compound HKMTi-1-012. […] Many of these EZH2 target genes are clearly differentially expressed following treatment with example compound 3 (HKMTi-1-005) compared to compound HKMTi-1-012, as shown in Table 2 in FIG. 5. Statistical enrichment of EZH2-target genes (Lee et al 2011) in the lists of differentially expressed genes was evaluated using the hypergeometric distribution. Example compound 3 (HKMTi-1-005) results in significant upregulation (p=3.3^−33 at 24 h and p=3.2^−21 at 48 h) and significant down-regulation (p=3.5^−37 at 24 h and p=3.8^−61 at 48 h) of EZH2 target genes. […]
# Normalised log 2 gene expression ratios were analysed using LIMMA (Smyth 2004) to obtain empirical Bayes moderated t-statistics reflecting statistical significance of differential expression across the 4 replicates for each drug, time combination. […]
# Statistical significance of overlap between these lists of EZH2 targets and the genes differentially expressed upon drug treatment in our microarray study was assessed using the hypergeometric distribution.
# [4] = reported; cited from earlier work
# [5] = MDA-MB-231, various concentrations, 48 h and 72 h
# [6] = MDA-MB-231, 10 μM, 48 h, normalised to GAPDH
smiles,measurement,setting,value
"Nc1nccc2c1ncn2C1C=C(CO)C(O)C1O (stereo not drawn) [DZNep, reference compound]",EZH2 mRNA level,[1]; [5],unaffected
same,FBXO32 mRNA level,[1]; [5],unaffected
same,JMJD3 mRNA level,[1]; [5],unaffected
same,KRT17 mRNA level,[1]; [5],consistently up-regulated
same,RUNX3 expression,[1]; [5],increased under certain conditions although not in a dose dependent manner
COc1cc2nc(N3CCCCC3)nc(NC3CCN(Cc4ccccc4)CC3)c2cc1OC [HKMTi-1-022],JMJD3 binding,[2],increase
same,"permissive chromatin marks (H3K4me3, H3K4me2, H3K9ac, H3K27ac)",[2],"increase of the activating marks H3K4me3, H3K27ac and H3K9ac"
same,"repressive chromatin marks (H3K27me3, H3K9me3) at KRT17 and FBXO32",[2],clear decrease
same,"permissive chromatin marks (H3K4me3, H3K4me2, H3K9ac, H3K27ac)",[2]; listed as HKMT-1-022,concomitant increase in all permissive chromatin marks examined
same,FBXO32 RNA levels,[1]; [6],up-regulate
same,KRT17 RNA levels,[1]; [6],up-regulate
same,RUNX3 expression,[1]; [6],not effecting
same,FBXO32 mRNA level,[1]; [5],increase in a dose dependent manner
same,JMJD3 mRNA level,[1]; [5],increase in a dose dependent manner
same,KRT17 mRNA level,[1]; [5],increase in a dose dependent manner
COc1cc2nc(N3CCN(c4ccccn4)CC3)nc(NC3CCN(Cc4ccccc4)CC3)c2cc1OC [HKMTi-1-011],"permissive chromatin marks (H3K4me3, H3K4me2, H3K9ac, H3K27ac)",[2],increase in most permissive marks
same,"repressive chromatin marks (H3K27me3, H3K9me3) at KRT17 and FBXO32",[2],clear decrease
same,FBXO32 RNA levels,[1]; [6],up-regulate
same,KRT17 RNA levels,[1]; [6],up-regulate
same,RUNX3 expression,[1]; [6],not effecting
same,FBXO32 mRNA level,[1]; [5],increase in a dose dependent manner
same,JMJD3 mRNA level,[1]; [5],increase in a dose dependent manner
same,KRT17 mRNA level,[1]; [5],increase in a dose dependent manner
same,cell death,MDA-MB-231 cells,greater than 50%
"COc1cc2c(NC3CCN(C)CC3)nc(N3CCCN(C)CC3)nc2cc1OCCCN(C)C [UNC0224, reference compound]",FBXO32 RNA levels,[1]; [6],very little effect
same,KRT17 RNA levels,[1]; [6],very little effect
same,"gene expression profile in the cell assay (KRT17, FBXO32, RUNX3)","[1]; MDA-MB-231, 10 μM, compared with example compounds 3, 4 and 5",very little effect
COc1cc2nc(N3CCN(C)CC3)nc(NC3CCN(Cc4ccccc4)CC3)c2cc1OC [HKMTi-1-005],"permissive chromatin marks (H3K4me3, H3K4me2, H3K9ac, H3K27ac)",[2],increase in most permissive marks
same,"repressive chromatin marks (H3K27me3, H3K9me3) at KRT17 and FBXO32",[2],clear decrease
same,functional enrichment of changed pathways (DAVID),[3],"upregulation of apoptosis genes and the lysosome pathway, and a downregulation of a number of processes related to cell cycle & cell division"
same,FBXO32 RNA levels,[1]; [6],up-regulate
same,KRT17 RNA levels,[1]; [6],up-regulate
same,RUNX3 expression,[1]; [6],not effecting
same,FBXO32 mRNA level,[1]; [5],dose-dependent increase
same,JMJD3 mRNA level,[1]; [5],dose-dependent increase
same,KRT17 mRNA level,[1]; [5],dose-dependent increase
"COc1cc2nc(N3CCCN(C)CC3)nc(NC3CCN(Cc4ccccc4)CC3)c2cc1OC [BIX-01294, reference compound]",separation of functional potency and cell toxicity,[4],poor separation of functional potency and cell toxicity
same,FBXO32 RNA levels,[1]; [6],does up-regulate
same,KRT17 RNA levels,[1]; [6],does not up-regulate
